Measurements taken from US20240358693A1, “METHODS OF TREATING PAIN” (Aisa Pharma, Inc., priority 2023, published 2024).

System: participants with SSc-RP
Test: Scleroderma Health Assessment Questionnaire (SHAQ): disability indices and visual analog scales
Assay type: in vivo, human
Description: The standard, validated, patient reported outcome measures tool for SSc patients, the Scleroderma Health Assessment Questionnaire (SHAQ), will be used to assess the participant qualify of life. Details are attached in the Appendix. The participant quality of life will be scored, and a disability index calculated for each questionnaire completed by the patient at Screening and each in-clinic visit. The absolute change in participant quality of life from baseline to the end of each dosing period will be calculated similar to frequency data as before.
The SHAQ includes a Raynaud's VAS, which will be reported at screening and each in-clinic visit. The absolute change in Raynaud-VAS, assessed by the participants response to the SHAQ question ‘In the past 7 days, how much have your Raynaud's interfered with your daily activities?’ at baseline and the end of each dosing period will be calculated similar to frequency data as before.
The SHAQ is used to calculate a Disability Index to assess the participant qualify of life. The eight categories assessed by the Disability Index are 1) dressing and grooming, 2) arising, 3) eating, 4) walking, 5) hygiene, 6) reach, 7) grip, and 8) common daily activities. For each of these categories, patients report the amount of difficulty they have in performing two or three specific activities.
There are four possible responses for the Disability Index questions: • Without any difficulty=0 • With some difficulty=1 • With much difficulty=2 • Unable to do=3. • The highest score reported by the patient for any component question of the eight categories determines the score for that category. • If a component question is left blank or the response is too ambiguous to assign a score, then the score for that category is determined by the remaining completed question(s). • If all component questions are blank or if more than one answer is given, then follow up with the respondent is required. • If the respondent's mark is between the response columns, then move it to the closest one. If it's directly between the two, move it to the higher one.
Each of the disability items on the SHAQ has a companion aids/devices variable that is used to record what type(s) of assistance, if any, the participant uses for his/her usual activities. These variables (see below) are coded as follows: • 0=No assistance is needed. • 1=A special device is used by the patient in his/her usual activities. • 2=The patient usually needs help from another person. • 3=The patient usually needs BOTH a special device AND help from another person.
The scoring variables and scoring rules permit the computation of two disability indices, the Standard Disability Index and the Alternative Disability Index.
This question results in a new set of category scores that are computed by adjusting the score for each category, if necessary, based on the patient's use of an aid or device or assistance for that category. If either devices and/or help from another person are checked for a category, the score is set to “2”, unless the score is already “3” (i.e., scores of “0” or “1” are increased to “2”). For example, if the highest score for the dressing category is “1”, and the patient says they use a device for dressing, the computed category score would be “2”. The sum of the computed categories scores is then calculated and divided by the number of categories answered. This gives a score in the 0 to 3 range.
The aid and device variables are not used to calculate the alternative disability index; it is calculated by adding the scores for each of the categories and dividing by the number of categories answered. This gives a score in the 0 to 3 range.
The standard, validated, patient reported outcome measures tool for SSc patients, the SHAQ, was collected at the time points specified in the study schedules (FIG. 2 and FIGS. 4A and 4B) to assess the participant's quality of life. The SHAQ included a Raynaud's VAS that will also be reported separately.

[1] = Cilnidipine 10 mg, Day 12, PP Population Part A, SSc patients
[2] = Cilnidipine 10 mg, Day 12, PP Population, Part A
[3] = Cilnidipine 10 mg, PP Population Part A, SSc patients
[4] = Cilnidipine 20 mg (N = 3), Modified ITT, Part A
[5] = Cilnidipine 20 mg (N = 3), patients with diagnosis of SSc, sensitivity analysis, Modified ITT, Part A
[6] = Cilnidipine 20 mg (n = 3), Table R
[7] = Cilnidipine 20 mg (n = 3), mITT population
[8] = Cilnidipine 20 mg, Day 12, PP Population Part A, SSc patients
[9] = Cilnidipine 20 mg, Day 12, PP Population, Part A
[10] = Cilnidipine 20 mg, PP Population Part A, SSc patients

## COCCOC(=O)C1=C(C)NC(C)=C(C(=O)OC/C=C/c2ccccc2)C1c1cccc([N+](=O)[O-])c1 (stereo not drawn) [Cilnidipine, cilnidipine]
[1]
  SHAQ Visual Analogue Scale - Finger Ulcers, Change from Baseline, Mean: −0.425
  SHAQ Visual Analogue Scale - Finger Ulcers, Change from Baseline, Median: −0.350
  SHAQ Visual Analogue Scale - Finger Ulcers, Percent Change from Baseline, Mean: −69.44%
  SHAQ Visual Analogue Scale - Finger Ulcers, Percent Change from Baseline, Median: −69.44%
  SHAQ Visual Analogue Scale - Intestinal Problems, Change from Baseline, Mean: −1.875
  SHAQ Visual Analogue Scale - Intestinal Problems, Change from Baseline, Median: −1.550
  SHAQ Visual Analogue Scale - Intestinal Problems, Percent Change from Baseline, Mean: −77.37%
  SHAQ Visual Analogue Scale - Intestinal Problems, Percent Change from Baseline, Median: −88.00%
  SHAQ Visual Analogue Scale - Overall Disease Severity, Change from Baseline, Mean: −0.900
  SHAQ Visual Analogue Scale - Overall Disease Severity, Change from Baseline, Median: −0.950
  SHAQ Visual Analogue Scale - Overall Disease Severity, Percent Change from Baseline, Mean: −56.96%
  SHAQ Visual Analogue Scale - Overall Disease Severity, Percent Change from Baseline, Median: −44.12%
  SHAQ Visual Analogue Scale - Pain, Change from Baseline, Mean: −0.100
  SHAQ Visual Analogue Scale - Pain, Change from Baseline, Median: 0.000
  SHAQ Visual Analogue Scale - Pain, Percent Change from Baseline, Mean: −9.88%
  SHAQ Visual Analogue Scale - Pain, Percent Change from Baseline, Median: 0.00%
  SHAQ Visual Analogue Scale - Raynaud's, Change from Baseline, Mean: 0.325
  SHAQ Visual Analogue Scale - Raynaud's, Change from Baseline, Median: 0.350
  SHAQ Visual Analogue Scale - Raynaud's, Percent Change from Baseline, Mean: 11.36%
  SHAQ Visual Analogue Scale - Raynaud's, Percent Change from Baseline, Median: −2.27%
[2]
  SHAQ Alternative Disability Index: Change from Baseline, Mean: 0.063
  SHAQ Alternative Disability Index: Change from Baseline, Median: 0.000
  SHAQ Alternative Disability Index: In-Clinic Visit (Day 12), Mean: 0.563
  SHAQ Alternative Disability Index: In-Clinic Visit (Day 12), Median: 0.500
  SHAQ Alternative Disability Index: Percent Change from Baseline, Mean: 15.87%
  SHAQ Alternative Disability Index: Percent Change from Baseline, Median: 15.87%
  SHAQ Standard Disability Index: Change from Baseline, Mean: 0.000
  SHAQ Standard Disability Index: Change from Baseline, Median: 0.000
  SHAQ Standard Disability Index: In-Clinic Visit (Day 12), Mean: 0.656
  SHAQ Standard Disability Index: In-Clinic Visit (Day 12), Median: 0.563
  SHAQ Standard Disability Index: Percent Change from Baseline, Mean: 0.00%
  SHAQ Standard Disability Index: Percent Change from Baseline, Median: 0.00%
  SHAQ Visual Analogue Scale - Pain: Change from Baseline, Mean: −0.100
  SHAQ Visual Analogue Scale - Pain: Change from Baseline, Median: 0.000
  SHAQ Visual Analogue Scale - Pain: In-Clinic Visit (Day 12), Mean: 1.875
  SHAQ Visual Analogue Scale - Pain: In-Clinic Visit (Day 12), Median: 1.950
  SHAQ Visual Analogue Scale - Pain: Percent Change from Baseline, Mean: −9.88%
  SHAQ Visual Analogue Scale - Pain: Percent Change from Baseline, Median: 0.00%
[3]
  SHAQ Visual Analogue Scale - Breathing Problems, In-Clinic Visit (Day 12), Mean: 1.575
  SHAQ Visual Analogue Scale - Breathing Problems, In-Clinic Visit (Day 12), Median: 0.000
  SHAQ Visual Analogue Scale - Finger Ulcers, In-Clinic Visit (Day 12), Mean: 0.275
  SHAQ Visual Analogue Scale - Finger Ulcers, In-Clinic Visit (Day 12), Median: 0.000
  SHAQ Visual Analogue Scale - Intestinal Problems, In-Clinic Visit (Day 12), Mean: 1.100
  SHAQ Visual Analogue Scale - Intestinal Problems, In-Clinic Visit (Day 12), Median: 0.300
  SHAQ Visual Analogue Scale - Overall Disease Severity, In-Clinic Visit (Day 12), Mean: 1.825
  SHAQ Visual Analogue Scale - Overall Disease Severity, In-Clinic Visit (Day 12), Median: 1.050
  SHAQ Visual Analogue Scale - Pain, In-Clinic Visit (Day 12), Mean: 1.875
  SHAQ Visual Analogue Scale - Pain, In-Clinic Visit (Day 12), Median: 1.950
  SHAQ Visual Analogue Scale - Raynaud's, In-Clinic Visit (Day 12), Mean: 1.925
  SHAQ Visual Analogue Scale - Raynaud's, In-Clinic Visit (Day 12), Median: 1.700
[4]
  SHAQ Overall Severity: Baseline, Mean: 2.667
  SHAQ Overall Severity: Baseline, Median: 2.900
  SHAQ Overall Severity: Change from Baseline, Mean: −1.633,
  SHAQ Overall Severity: Change from Baseline, Median: −1.600
  SHAQ Overall Severity: Day 12, Mean: 1.033
  SHAQ Overall Severity: Day 12, Median: 1.200
  SHAQ Overall Severity: Percent Change from Baseline, Mean: −62.64%
  SHAQ Overall Severity: Percent Change from Baseline, Median: −60.00%
[5]
  SHAQ Standard Disability Index: Baseline, Mean: 0.250
  SHAQ Standard Disability Index: Baseline, Median: 0.375
  SHAQ Standard Disability Index: Change from Baseline, Mean: −0.125
  SHAQ Standard Disability Index: Change from Baseline, Median: −0.125
  SHAQ Standard Disability Index: Day 12, Mean: 0.125
  SHAQ Standard Disability Index: Day 12, Median: 0.125
  SHAQ Standard Disability Index: Percent Change from Baseline, Mean: −50.00%
  SHAQ Standard Disability Index: Percent Change from Baseline, Median: −50.00%
[6]
  Alternative disability index, improvement: 42% improvement
  Standard disability index, improvement: 50% improvement
  VAS - Breathing problems, improvement: 75% improvement*
  VAS - Raynaud's, improvement: 55% improvement
  VAS Overall Disease Severity, improvement: 63% improvement
Cilnidipine 20 mg (n = 3), Table R, baseline 2.17 on a 0-10 VAS
  VAS- PAIN, improvement: 53% improvement*
[7]
  SHAQ % change VAS Raynauds: −49%
  SHAQ % change in Alternative Disability Index: −42%
  SHAQ % change in Pain: −53%
  SHAQ % change in Standard Disability Index: −50%
  SHAQ % change overall SSc Disease Severity: −63%
  SHAQ % improvement in Breathing (median): 67%
  SHAQ % improvement in VAS Digital Ulcers: 35%
[8]
  SHAQ Visual Analogue Scale - Breathing Problems, Change from Baseline, Mean: −0.475
  SHAQ Visual Analogue Scale - Breathing Problems, Change from Baseline, Median: −0.250
  SHAQ Visual Analogue Scale - Breathing Problems, Percent Change from Baseline, Mean: 3.73%
  SHAQ Visual Analogue Scale - Breathing Problems, Percent Change from Baseline, Median: −17.54%
  SHAQ Visual Analogue Scale - Finger Ulcers, Change from Baseline, Mean: −0.933
  SHAQ Visual Analogue Scale - Finger Ulcers, Change from Baseline, Median: 0.000
  SHAQ Visual Analogue Scale - Finger Ulcers, Percent Change from Baseline, Mean: 35.29%
  SHAQ Visual Analogue Scale - Finger Ulcers, Percent Change from Baseline, Median: 35.29%
  SHAQ Visual Analogue Scale - Intestinal Problems, Change from Baseline, Mean: 0.150
  SHAQ Visual Analogue Scale - Intestinal Problems, Change from Baseline, Median: 0.150
  SHAQ Visual Analogue Scale - Intestinal Problems, Percent Change from Baseline, Mean: −10.00%
  SHAQ Visual Analogue Scale - Intestinal Problems, Percent Change from Baseline, Median: 30.00%
  SHAQ Visual Analogue Scale - Overall Disease Severity, Change from Baseline, Mean: −2.000
  SHAQ Visual Analogue Scale - Overall Disease Severity, Change from Baseline, Median: −1.700
  SHAQ Visual Analogue Scale - Overall Disease Severity, Percent Change from Baseline, Mean: −64.20%
  SHAQ Visual Analogue Scale - Overall Disease Severity, Percent Change from Baseline, Median: −64.44%
  SHAQ Visual Analogue Scale - Pain, Change from Baseline, Mean: −0.650
  SHAQ Visual Analogue Scale - Pain, Change from Baseline, Median: −0.650
  SHAQ Visual Analogue Scale - Pain, Percent Change from Baseline, Mean: −34.56%
  SHAQ Visual Analogue Scale - Pain, Percent Change from Baseline, Median: −51.06%
  SHAQ Visual Analogue Scale - Raynaud's, Change from Baseline, Mean: −1.200
  SHAQ Visual Analogue Scale - Raynaud's, Change from Baseline, Median: −1.050
  SHAQ Visual Analogue Scale - Raynaud's, Percent Change from Baseline, Mean: −41.11%
  SHAQ Visual Analogue Scale - Raynaud's, Percent Change from Baseline, Median: −38.67%
[9]
  SHAQ Alternative Disability Index: Change from Baseline, Mean: 0.000
  SHAQ Alternative Disability Index: Change from Baseline, Median: −0.063
  SHAQ Alternative Disability Index: In-Clinic Visit (Day 12), Mean: 0.219
  SHAQ Alternative Disability Index: In-Clinic Visit (Day 12), Median: 0.188
  SHAQ Alternative Disability Index: Percent Change from Baseline, Mean: 5.56%
  SHAQ Alternative Disability Index: Percent Change from Baseline, Median: −33.33%
  SHAQ Standard Disability Index: Change from Baseline, Mean: −0.063
  SHAQ Standard Disability Index: Change from Baseline, Median: −0.063
  SHAQ Standard Disability Index: In-Clinic Visit (Day 12), Mean: 0.281
  SHAQ Standard Disability Index: In-Clinic Visit (Day 12), Median: 0.188
  SHAQ Standard Disability Index: Percent Change from Baseline, Mean: −26.67%
  SHAQ Standard Disability Index: Percent Change from Baseline, Median: −33.33%
  SHAQ Visual Analogue Scale - Pain: Change from Baseline, Mean: −0.650
  SHAQ Visual Analogue Scale - Pain: Change from Baseline, Median: −0.650
  SHAQ Visual Analogue Scale - Pain: In-Clinic Visit (Day 12), Mean: 1.875
  SHAQ Visual Analogue Scale - Pain: In-Clinic Visit (Day 12), Median: 1.400
  SHAQ Visual Analogue Scale - Pain: Percent Change from Baseline, Mean: −34.56%
  SHAQ Visual Analogue Scale - Pain: Percent Change from Baseline, Median: −51.06%
[10]
  SHAQ Visual Analogue Scale - Breathing Problems, In-Clinic Visit (Day 12), Mean: 0.850
  SHAQ Visual Analogue Scale - Breathing Problems, In-Clinic Visit (Day 12), Median: 0.450
